Test results from patent US10246461B2, “Dosage form compositions comprising an inhibitor of bruton's tyrosine kinase” (Genentech, Inc., priority 2016, dated 2019).
≈ marks a conversion by molar mass, not a printed value. Where two headings read alike, the source gives them in different places.

Assays:
[1] = Dissolution of compound (I) mesylate salt vs free base in pH 4.5 aqueous media; format: physicochemical; details: 100 mg in 2 mL pH 4.5 aqueous media, 37° C.
[2] = Solubility of compound (I) free base in buffers of varying pH, FeSSIF and FaSSIF; format: physicochemical
[3] = Two-stage non-sink dissolution assay (kinetic solubility) of ASD formulations and unformulated API: simulated gastric media then FaSSIF; format: physicochemical; details: pH 1 gastric media, dosed concentration of about 2000 ug/mL
Experimental: The assay was performed in a modified USP II apparatus (paddles). The experiment measured the total drug dissolved in the presence of excess solid API (non-sink conditions), which included a combination of ‘free’ and colloidal or polymer-bound drug in solution. In some evaluations—to simulate the relatively high pH gastric environment in patients taking proton pump inhibitors—different simulated gastric media were used to begin the two-stage experiment: either pH 1 (HCl buffer) or pH 4 or 5 (acetate buffers) at a nominal compound (I) concentration of 2.0 mg/mL. In some other experiments, acetate buffer was replaced with a dilute HCl solution at similar pH, to better mimic the expected in vivo environment. After 30 minutes, the test material was transferred to fasted-state simulated intestinal fluid (FaSSIF) media consisting of physiologically relevant bile salts (SIF Powder, Biorelevant Inc.) in 100 mM phosphate buffer, and the compound (I) concentration was diluted to 1.0 mg/mL. pH of the phosphate buffer was adjusted as needed to obtain a simulated intestinal pH of 6.8±0.1 in the second stage of the dissolution experiment. The test material was sampled periodically throughout the test and samples were centrifuged at 13,000 r/min. The supernatant was diluted 1:1 with sample diluent and the compound (I) concentration was measured by HPLC. […]

[4] = Human PK, second comparative study: single dose food and PPI assessment of 100 mg powder-in-capsule (Panels J-M); format: in vivo; details: 100 mg PIC single dose
Source text: The protocol is detailed Table 24 below wherein each panel contained 10 human subjects.

[5] = Panel K: high fat breakfast, no PPI
[6] = Panel L: fasted + rabeprazole 20 mg BID
[7] = Panel M: high fat breakfast + rabeprazole 20 mg BID

With C[C@H]1CN(C2COC2)CCN1c1ccc(Nc2cc(-c3ccnc(N4CCn5c(cc6c5CC(C)(C)C6)C4=O)c3CO)cn(C)c2=O)nc1 [Compound (I) free base, (S)-2-(3′-(hydroxymethyl)-1-methyl-5-((5-(2-methyl-4-(oxetan-3-yl)piperazin-1-yl)pyridin-2-yl)amino)-6-oxo-1,6-dihydro-[3,4′-bipyridin]-2′-yl)-7,7-dimethyl-2,3,4,6,7,8-hexahydro-1H-cyclopenta[4,5]pyrrolo[1,2-a]pyrazin-1-one] the “% dissolved” value ([1]; 15 min) was 0%, the “% dissolved” value ([1]; 30 min) was 0.5% and the “% dissolved” value ([1]; 45 min) was 2.3%. The “% dissolved” value ([1]; 60 min) was 4.1%, the solubility ([2]; FaSSIF (pH 6.8), read-out: Solubility) was 13 µg/mL (≈ 19.6 µM) and the solubility ([2]; FeSSIF (pH 5), read-out: Solubility) was 18 µg/mL (≈ 27.1 µM). It also gave a solubility ([2]; aqueous buffer, pH 2.54, aqueous buffer, read-out: Solubility) of 35900 µg/mL (≈ 54000 µM), a solubility ([2]; aqueous buffer, pH 2.6, aqueous buffer, pH 2.60, read-out: Solubility) of 6480 µg/mL (≈ 9750 µM) and a solubility ([2]; aqueous buffer, pH 3.8, aqueous buffer, pH 3.80, read-out: Solubility) of 36 µg/mL (≈ 54.2 µM). The solubility ([2]; aqueous buffer, pH 5.04, aqueous buffer, read-out: Solubility) was 1 µg/mL (≈ 1.5 µM), the solubility ([2]; aqueous buffer, pH 6.94, aqueous buffer, read-out: Solubility) was 1 µg/mL (≈ 1.5 µM) and the solubility ([2]; aqueous buffer, pH 7.76, aqueous buffer, read-out: Solubility) was 1 µg/mL (≈ 1.5 µM). For the same molecule, the “kinetic dissolution in gastric media” value [3] was “fully dissolved”, the “plasma AUCinf, Mean” value ([4]; Panel J: fasted, no PPI) was 1.073 µM·h and the “plasma HL-Lambda-z, Mean” value ([4]; Panel J: fasted, no PPI) was 16 h. The “plasma HL-Lambda-z, Median” value ([4]; Panel J: fasted, no PPI) was 13 h, the “plasma AUCinf, Mean” value [4, 5] was 1.701 µM·h and the “plasma HL-Lambda-z, Mean” value [4, 5] was 9.82 h. The “plasma HL-Lambda-z, Median” value [4, 5] was 9.7 h, the “plasma HL-Lambda-z, Mean” value [4, 6] was 12.8 h and the “plasma HL-Lambda-z, Median” value [4, 6] was 11 h. The “plasma HL-Lambda-z, Mean” value [4, 7] was 13.4 h, the “plasma HL-Lambda-z, Median” value [4, 7] was 12 h and the Cmax ([4]; Panel M: high fat breakfast + rabeprazole 20 mg BID, read-out: plasma Cmax, Mean) was 41 nM. For the same molecule, the AUC(0-t) ([4]; plasma, oral, Panel L: fasted + rabeprazole 20 mg BID, read-out: plasma AUC0-24, Mean) was 0.157 µM·h, the AUC(0-t) ([4]; plasma, oral, Panel L: fasted + rabeprazole 20 mg BID, read-out: plasma AUC0-24, Median) was 0.16 µM·h and the AUC(0-inf) ([4]; plasma, oral, Panel L: fasted + rabeprazole 20 mg BID, read-out: plasma AUCinf, Mean) was 0.274 µM·h. The AUC(0-inf) ([4]; plasma, oral, Panel L: fasted + rabeprazole 20 mg BID, read-out: plasma AUCinf, Median) was 0.27 µM·h, the AUC(0-t) ([4]; plasma, oral, Panel L: fasted + rabeprazole 20 mg BID, read-out: plasma AUClast, Mean) was 0.261 µM·h and the AUC(0-t) ([4]; plasma, oral, Panel L: fasted + rabeprazole 20 mg BID, read-out: plasma AUClast, Median) was 0.27 µM·h. It also gave a Cmax ([4]; plasma, oral, Panel L: fasted + rabeprazole 20 mg BID, read-out: plasma Cmax, Mean) of 11.6 nM, a Cmax ([4]; plasma, oral, Panel L: fasted + rabeprazole 20 mg BID, read-out: plasma Cmax, Median) of 12 nM and a Tmax ([4]; plasma, oral, Panel L: fasted + rabeprazole 20 mg BID, read-out: plasma Tmax, Mean) of 5.7 h. For the same molecule, the Tmax ([4]; plasma, oral, Panel L: fasted + rabeprazole 20 mg BID, read-out: plasma Tmax, Median) was 4 h, the AUC(0-t) ([4]; plasma, oral, Panel M: high fat breakfast + rabeprazole 20 mg BID, read-out: plasma AUC0-24, Mean) was 0.471 µM·h and the AUC(0-t) ([4]; plasma, oral, Panel M: high fat breakfast + rabeprazole 20 mg BID, read-out: plasma AUC0-24, Median) was 0.52 µM·h. The AUC(0-inf) ([4]; plasma, oral, Panel M: high fat breakfast + rabeprazole 20 mg BID, read-out: plasma AUCinf, Mean) was 0.657 µM·h, the AUC(0-inf) ([4]; plasma, oral, Panel M: high fat breakfast + rabeprazole 20 mg BID, read-out: plasma AUCinf, Median) was 0.67 µM·h and the AUC(0-t) ([4]; plasma, oral, Panel M: high fat breakfast + rabeprazole 20 mg BID, read-out: plasma AUClast, Mean) was 0.642 µM·h. The AUC(0-t) ([4]; plasma, oral, Panel M: high fat breakfast + rabeprazole 20 mg BID, read-out: plasma AUClast, Median) was 0.66 µM·h, the Cmax ([4]; plasma, oral, Panel M: high fat breakfast + rabeprazole 20 mg BID, read-out: plasma Cmax, Mean) was 40.6 nM and the Cmax ([4]; plasma, oral, Panel M: high fat breakfast + rabeprazole 20 mg BID, read-out: plasma Cmax, Median) was 40 nM. It also gave a Tmax ([4]; plasma, oral, Panel M: high fat breakfast + rabeprazole 20 mg BID, read-out: plasma Tmax, Mean) of 6.9 h, a Tmax ([4]; plasma, oral, Panel M: high fat breakfast + rabeprazole 20 mg BID, read-out: plasma Tmax, Median) of 7 h and an AUC(0-t) ([4]; plasma, oral, 100 mg, Panel J: fasted, no PPI, read-out: plasma AUC0-24, Mean) of 0.967 µM·h. It also gave an AUC(0-t) ([4]; plasma, oral, 100 mg, Panel J: fasted, no PPI, read-out: plasma AUC0-24, Median) of 0.98 µM·h, an AUC(0-inf) ([4]; plasma, oral, 100 mg, Panel J: fasted, no PPI, read-out: plasma AUCinf, Mean) of 1.07 µM·h and an AUC(0-inf) ([4]; plasma, oral, 100 mg, Panel J: fasted, no PPI, read-out: plasma AUCinf, Median) of 1.1 µM·h. It also gave an AUC(0-t) ([4]; plasma, oral, 100 mg, Panel J: fasted, no PPI, read-out: plasma AUClast, Mean) of 1.06 µM·h, an AUC(0-t) ([4]; plasma, oral, 100 mg, Panel J: fasted, no PPI, read-out: plasma AUClast, Median) of 1 µM·h and a Cmax ([4]; plasma, oral, 100 mg, Panel J: fasted, no PPI, read-out: plasma Cmax, Mean) of 218 nM. It also gave a Cmax ([4]; plasma, oral, 100 mg, Panel J: fasted, no PPI, read-out: plasma Cmax, Median) of 200 nM, a Tmax ([4]; plasma, oral, 100 mg, Panel J: fasted, no PPI, read-out: plasma Tmax, Mean) of 1.5 h and a Tmax ([4]; plasma, oral, 100 mg, Panel J: fasted, no PPI, read-out: plasma Tmax, Median) of 1.5 h. The AUC(0-t) ([4]; plasma, oral, 100 mg, Panel K: high fat breakfast, no PPI, read-out: plasma AUC0-24, Mean) was 1.56 µM·h, the AUC(0-t) ([4]; plasma, oral, 100 mg, Panel K: high fat breakfast, no PPI, read-out: plasma AUC0-24, Median) was 1.5 µM·h and the AUC(0-inf) ([4]; plasma, oral, 100 mg, Panel K: high fat breakfast, no PPI, read-out: plasma AUCinf, Mean) was 1.7 µM·h. It also gave an AUC(0-inf) ([4]; plasma, oral, 100 mg, Panel K: high fat breakfast, no PPI, read-out: plasma AUCinf, Median) of 1.6 µM·h, an AUC(0-t) ([4]; plasma, oral, 100 mg, Panel K: high fat breakfast, no PPI, read-out: plasma AUClast, Mean) of 1.69 µM·h and an AUC(0-t) ([4]; plasma, oral, 100 mg, Panel K: high fat breakfast, no PPI, read-out: plasma AUClast, Median) of 1.6 µM·h. The Cmax ([4]; plasma, oral, 100 mg, Panel K: high fat breakfast, no PPI, read-out: plasma Cmax, Mean) was 235 nM, the Cmax ([4]; plasma, oral, 100 mg, Panel K: high fat breakfast, no PPI, read-out: plasma Cmax, Median) was 250 nM and the Tmax ([4]; plasma, oral, 100 mg, Panel K: high fat breakfast, no PPI, read-out: plasma Tmax, Mean) was 4 h. For the same molecule, the Tmax ([4]; plasma, oral, 100 mg, Panel K: high fat breakfast, no PPI, read-out: plasma Tmax, Median) was 4 h.
Work on CC1CN(C2COC2)CCN1c1ccc(Nc2cc(-c3ccnc(N4CCn5c(cc6c5CC(C)(C)C6)C4=O)c3CO)cn(C)c2=O)nc1 [Compound (A), (R)-2-(3′-(hydroxymethyl)-1-methyl-5-((5-(2-methyl-4-(oxetan-3-yl)piperazin-1-yl)pyridin-2-yl)amino)-6-oxo-1,6-dihydro-[3,4′-bipyridin]-2′-yl)-7,7-dimethyl-2,3,4,6,7,8-hexahydro-1H-cyclopenta[4,5]pyrrolo[1,2-a]pyrazin-1-one] yielded a solubility ([2]; aqueous buffer, pH 2.6, aqueous buffer, read-out: aqueous solubility) of roughly 6500 µg/mL (≈ 9780 µM) and a solubility ([2]; aqueous buffer, pH 5.0, read-out: solubility) of roughly 1 µg/mL (≈ 1.5 µM).
